These results are taken from patent publication US12673946B2, “Pyrimidin-4(3H)-one derivatives as TRPV4 antagonists” (RaQualia Pharma Inc., priority 2020, dated 2026).

Some results are limits rather than exact numbers.

For the assay, the target named is T1, human TRPV4 (Homo sapiens, UniProt Q9HBA0).
T1 construct: host or cells: tetracycline-inducible Flp-In T-REx 293 cells
In words: Hypotonicity-induced Ca2+ influx (Fluo-4, FDSS). The assay is classed as cell-based. A digest of the protocol:
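Flp-In T-REx 293 cells with tetracycline-induced human TRPV4, loaded with Fluo-4 for 60 min at 25 °C. Compound added 5 min before hypotonic mannitol/CaCl2 solution. Ca2+ signal recorded for 4.5 min on FDSS.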

The mark [1] stands for this setting: Flp-In T-REx 293 cells expressing human TRPV4, examples listed under heading 'Human IC50<50 nM'.
The mark [2] stands for this setting: Flp-In T-REx 293 cells stably expressing human TRPV4, compounds listed by potency bin (<10 nM Tables 96-1/96-2, <3 nM Table 97).

T1 sequence (Q9HBA0 whole entry): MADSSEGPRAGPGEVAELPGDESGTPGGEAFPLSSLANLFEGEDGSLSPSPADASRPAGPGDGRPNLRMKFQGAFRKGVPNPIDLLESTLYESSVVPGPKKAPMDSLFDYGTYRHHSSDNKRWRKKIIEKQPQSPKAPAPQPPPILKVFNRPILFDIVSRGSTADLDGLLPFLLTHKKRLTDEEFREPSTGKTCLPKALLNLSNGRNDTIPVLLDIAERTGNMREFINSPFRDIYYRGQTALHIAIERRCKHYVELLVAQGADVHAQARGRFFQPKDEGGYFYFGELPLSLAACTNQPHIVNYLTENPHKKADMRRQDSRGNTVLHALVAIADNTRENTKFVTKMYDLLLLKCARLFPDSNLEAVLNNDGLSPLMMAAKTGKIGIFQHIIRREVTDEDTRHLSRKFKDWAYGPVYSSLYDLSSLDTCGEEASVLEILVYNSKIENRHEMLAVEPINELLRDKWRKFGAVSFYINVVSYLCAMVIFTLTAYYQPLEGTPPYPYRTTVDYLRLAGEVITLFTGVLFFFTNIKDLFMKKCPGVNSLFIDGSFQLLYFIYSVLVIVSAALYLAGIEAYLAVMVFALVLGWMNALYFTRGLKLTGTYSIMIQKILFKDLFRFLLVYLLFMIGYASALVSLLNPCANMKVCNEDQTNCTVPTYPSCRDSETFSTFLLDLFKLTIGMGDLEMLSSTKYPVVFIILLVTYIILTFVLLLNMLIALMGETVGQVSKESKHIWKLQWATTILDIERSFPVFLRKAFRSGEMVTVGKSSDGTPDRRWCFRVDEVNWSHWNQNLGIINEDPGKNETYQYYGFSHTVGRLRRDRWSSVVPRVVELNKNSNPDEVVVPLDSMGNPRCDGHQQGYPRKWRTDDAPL

One may read the IC50 as the concentration that inhibits the measured activity by half. A high value points to a need for much substance. As to `O=C([C@H](O)c1cccc(C(F)(F)F)c1)N1CCCc2nc(C3(c4cc(-c5cnsc5)cs4)CC3)[nH]c(=O)c2C1` [41-3], the IC50 runs as follows: under setting [1], < 50 nM; under setting [2], < 10 nM.

With `O=C([C@H](O)c1cccc(C(F)(F)F)c1)N1CCCc2nc(C3(c4cccc(-c5cnsc5)c4)CC3)[nH]c(=O)c2C1` [42-1], the half-maximal inhibitory concentration (IC50) by setting is: under setting [1], < 50 nM; under setting [2], < 3 nM. The corresponding values for `COc1cc(-c2cccc(C3(c4nc5c(c(=O)[nH]4)CN(C(=O)[C@H](O)c4cccc(C(F)(F)F)c4)CCC5)CC3)c2)ccn1` [42-2] are < 50 nM and < 3 nM. The corresponding values for `O=C([C@H](O)c1cccc(C(F)(F)F)c1)N1CCCc2nc(C3(c4cccc(-c5cnc(N6CCCC6)nc5)c4)CC3)[nH]c(=O)c2C1` [42-3] are < 50 nM and < 3 nM. Turning to `COCCOc1cccc(-c2cccc(C3(c4nc5c(c(=O)[nH]4)CN(C(=O)[C@H](O)c4cccc(C(F)(F)F)c4)CCC5)CC3)c2)c1` [42-4], the IC50 runs as follows: under setting [1], < 50 nM; under setting [2], < 3 nM. `N#Cc1cccc(-c2cccc(C3(c4nc5c(c(=O)[nH]4)CN(C(=O)[C@H](O)c4cccc(C(F)(F)F)c4)CCC5)CC3)c2)c1` [42-5]: the half-maximal inhibitory concentration (IC50) under setting [1] was < 50 nM and the IC50 under setting [2] is < 3 nM. The corresponding values for `O=C([C@H](O)c1cccc(C(F)(F)F)c1)N1CCCc2nc(C3(c4cccc(-c5cnn(C6CC6)c5)c4)CC3)[nH]c(=O)c2C1` [42-6] are < 50 nM and < 3 nM. As to `COc1ccc(-c2cccc(C3(c4nc5c(c(=O)[nH]4)CN(C(=O)[C@H](O)c4cccc(C(F)(F)F)c4)CCC5)CC3)c2)cn1` [42-7], the IC50 by setting is: under setting [1], < 50 nM; under setting [2], < 3 nM. The corresponding values for `O=C([C@H](O)c1cccc(C(F)(F)F)c1)N1CCCc2nc(C3(c4cccc(-c5cccnc5)c4)CC3)[nH]c(=O)c2C1` [42-8] are < 50 nM and < 3 nM. The corresponding values for `O=C(c1cccc(-c2cccc(C3(c4nc5c(c(=O)[nH]4)CN(C(=O)[C@H](O)c4cccc(C(F)(F)F)c4)CCC5)CC3)c2)c1)N1CCCCC1` [42-9] are < 50 nM and < 3 nM. The corresponding values for `CC1CCN(c2ccc(-c3cccc(C4(c5nc6c(c(=O)[nH]5)CN(C(=O)[C@H](O)c5cccc(C(F)(F)F)c5)CCC6)CC4)c3)cn2)CC1` [42-10] are < 50 nM and < 3 nM.

Turning to `CN(C)c1ccc(-c2cccc(C3(c4nc5c(c(=O)[nH]4)CN(C(=O)[C@H](O)c4cccc(C(F)(F)F)c4)CCC5)CC3)c2)cc1` [42-11], the IC50 is < 50 nM under setting [1] and < 3 nM under setting [2].

For the molecule `O=C([C@H](O)c1cccc(C(F)(F)F)c1)N1CCCc2nc(C3(c4cccc(-c5cnn(C6CCC6)c5)c4)CC3)[nH]c(=O)c2C1` [42-12], the half-inhibitory concentration (IC50) under setting [1] is < 50 nM and the half-maximal inhibitory concentration (IC50) under setting [2] is < 3 nM.

As for `CN(C)c1ccc(-c2cccc(C3(c4nc5c(c(=O)[nH]4)CN(C(=O)[C@H](O)c4cccc(C(F)(F)F)c4)CCC5)CC3)c2)cn1` [42-13], the half-inhibitory concentration (IC50) reads like this: under setting [1], < 50 nM; under setting [2], < 3 nM. For `Cn1c(=O)oc2cc(-c3cccc(C4(c5nc6c(c(=O)[nH]5)CN(C(=O)[C@H](O)c5cccc(C(F)(F)F)c5)CCC6)CC4)c3)ccc21` [42-14], the IC50 reads like this: under setting [1], < 50 nM; under setting [2], < 3 nM. The corresponding values for `CS(=O)(=O)c1cccc(-c2cccc(C3(c4nc5c(c(=O)[nH]4)CN(C(=O)[C@H](O)c4cccc(C(F)(F)F)c4)CCC5)CC3)c2)c1` [42-15] are < 50 nM and < 3 nM.

Turning to `O=C([C@H](O)c1cccc(C(F)(F)F)c1)N1CCCc2nc(C3(c4cccc(-c5ccccc5)c4)CC3)[nH]c(=O)c2C1` [42-16], the IC50 by setting is: under setting [1], < 50 nM; under setting [2], < 10 nM.

For `O=C([C@H](O)c1cccc(C(F)(F)F)c1)N1CCCc2nc(C3(c4cccc(-c5ccncc5)c4)CC3)[nH]c(=O)c2C1` [42-17], the IC50 under setting [1] was < 50 nM and the IC50 under setting [2] was < 10 nM.

As for `CN(C)S(=O)(=O)c1ccc(-c2cccc(C3(c4nc5c(c(=O)[nH]4)CN(C(=O)[C@H](O)c4cccc(C(F)(F)F)c4)CCC5)CC3)c2)cc1` [42-18], the IC50 by setting is: under setting [1], < 50 nM; under setting [2], < 10 nM.

As for `N#Cc1cncc(-c2cccc(C3(c4nc5c(c(=O)[nH]4)CN(C(=O)[C@H](O)c4cccc(C(F)(F)F)c4)CCC5)CC3)c2)c1` [42-19], the 50% inhibitory concentration (IC50) under setting [1] is < 50 nM and the half-inhibitory concentration (IC50) under setting [2] is < 10 nM. The corresponding values for `Cn1ncc2cc(-c3cccc(C4(c5nc6c(c(=O)[nH]5)CN(C(=O)[C@H](O)c5cccc(C(F)(F)F)c5)CCC6)CC4)c3)ccc21` [42-20] are < 50 nM and < 10 nM. The corresponding values for `O=C([C@H](O)c1cccc(C(F)(F)F)c1)N1CCCc2nc(C3(c4cccc(-c5cnn(C(F)F)c5)c4)CC3)[nH]c(=O)c2C1` [42-21] are < 50 nM and < 10 nM. The corresponding values for `O=C([C@H](O)c1cccc(C(F)(F)F)c1)N1CCCc2nc(C3(c4cccc(-c5ccc(C6(O)CCOCC6)cc5)c4)CC3)[nH]c(=O)c2C1` [42-22] are < 50 nM and < 10 nM. As to `COCCn1cc(-c2cccc(C3(c4nc5c(c(=O)[nH]4)CN(C(=O)[C@H](O)c4cccc(C(F)(F)F)c4)CCC5)CC3)c2)cn1` [42-23], the half-inhibitory concentration (IC50) runs as follows: under setting [1], < 50 nM; under setting [2], < 10 nM. In the case of `Cn1ncc2c(-c3cccc(C4(c5nc6c(c(=O)[nH]5)CN(C(=O)[C@H](O)c5cccc(C(F)(F)F)c5)CCC6)CC4)c3)cccc21` [42-24], the IC50 was < 50 nM under setting [1] and < 10 nM under setting [2].

`O=C([C@H](O)c1cccc(C(F)(F)F)c1)N1CCCc2nc(C3(c4cccc(-c5cncs5)c4)CC3)[nH]c(=O)c2C1` [42-25]: the IC50 is, setting by setting: under setting [1], < 50 nM; under setting [2], < 10 nM. As for `Cn1nccc1-c1cccc(C2(c3nc4c(c(=O)[nH]3)CN(C(=O)[C@H](O)c3cccc(C(F)(F)F)c3)CCC4)CC2)c1` [42-26], the IC50 reads like this: under setting [1], < 50 nM; under setting [2], < 10 nM. The corresponding values for `Cn1cc(-c2cccc(C3(c4nc5c(c(=O)[nH]4)CN(C(=O)[C@H](O)c4cccc(C(F)(F)F)c4)CCC5)CC3)c2)cn1` [42-27] are < 50 nM and < 10 nM. As for `O=C([C@H](O)c1cccc(C(F)(F)F)c1)N1CCCc2nc(C3(c4cccc(-c5csc6ccccc56)c4)CC3)[nH]c(=O)c2C1` [42-28], the IC50 runs as follows: under setting [1], < 50 nM; under setting [2], < 10 nM. The corresponding values for `O=C([C@H](O)c1cccc(C(F)(F)F)c1)N1CCCc2nc(C3(c4cccc(-c5cc6ccccc6s5)c4)CC3)[nH]c(=O)c2C1` [42-29] are < 50 nM and < 10 nM. The corresponding values for `O=C([C@H](O)c1cccc(C(F)(F)F)c1)N1CCCc2nc(C3(c4cccc(-c5cnco5)c4)CC3)[nH]c(=O)c2C1` [42-30] are < 50 nM and < 10 nM. The corresponding values for `CN(C)C(=O)c1cccc(-c2cccc(C3(c4nc5c(c(=O)[nH]4)CN(C(=O)[C@H](O)c4cccc(C(F)(F)F)c4)CCC5)CC3)c2)c1` [42-31] are < 50 nM and < 10 nM. As for `CNc1cc(-c2cccc(C3(c4nc5c(c(=O)[nH]4)CN(C(=O)[C@H](O)c4cccc(C(F)(F)F)c4)CCC5)CC3)c2)ccn1` [42-32], the 50% inhibitory concentration (IC50) was < 50 nM under setting [1] and < 10 nM under setting [2]. Consider `O=C([C@H](O)c1cccc(C(F)(F)F)c1)N1CCCc2nc(C3(c4cccc(-c5cncnc5)c4)CC3)[nH]c(=O)c2C1` [42-33], for which the concentration for half-maximal inhibition (IC50) under setting [1] was < 50 nM. Take `Cn1ccc(-c2cccc(C3(c4nc5c(c(=O)[nH]4)CN(C(=O)[C@H](O)c4cccc(C(F)(F)F)c4)CCC5)CC3)c2)n1` [42-34]: under setting [1], the IC50 was < 50 nM. Consider `O=C([C@H](O)c1cccc(C(F)(F)F)c1)N1CCCc2nc(C3(c4cccc(C5=CCC(C(F)(F)F)CC5)c4)CC3)[nH]c(=O)c2C1` (stereo partly shown) [42-35], for which the half-inhibitory concentration (IC50) under setting [1] was < 50 nM and the half-inhibitory concentration (IC50) under setting [2] is < 10 nM.

Take `CN(C)Cc1cccc(-c2cccc(C3(c4nc5c(c(=O)[nH]4)CN(C(=O)[C@H](O)c4cccc(C(F)(F)F)c4)CCC5)CC3)c2)c1` [42-36]: under setting [1], the half-maximal inhibitory concentration (IC50) is < 50 nM.

On to `CN1CCN(Cc2ccc(-c3cccc(C4(c5nc6c(c(=O)[nH]5)CN(C(=O)[C@H](O)c5cccc(C(F)(F)F)c5)CCC6)CC4)c3)cc2)CC1` [42-37], for which the 50% inhibitory concentration (IC50) under setting [1] was < 50 nM. On the same count and under the same terms, for `Cn1cc(-c2cccc(C3(c4nc5c(c(=O)[nH]4)CN(C(=O)[C@H](O)c4cccc(C(F)(F)F)c4)CCC5)CC3)c2)ccc1=O` [42-38] the value was < 50 nM. For `O=C([C@H](O)c1cccc(C(F)(F)F)c1)N1CCCc2nc(C3(c4cccc(-c5ccc(OCc6ccccn6)cc5)c4)CC3)[nH]c(=O)c2C1` [42-43], the IC50 by setting is: under setting [1], < 50 nM; under setting [2], < 3 nM. The corresponding values for `O=C([C@H](O)c1cccc(C(F)(F)F)c1)N1CCCc2nc(C3(c4cccc(-c5cncc(C(F)(F)F)c5)c4)CC3)[nH]c(=O)c2C1` [42-45] are < 50 nM and < 10 nM.

`O=C([C@H](O)c1cccc(C(F)(F)F)c1)N1CCCc2nc(C3(c4cccc(-c5ccc(C(F)(F)F)nc5)c4)CC3)[nH]c(=O)c2C1` [42-46]: the half-maximal inhibitory concentration (IC50) was < 50 nM under setting [1] and < 3 nM under setting [2]. The corresponding values for `O=C([C@H](O)c1cccc(C(F)(F)F)c1)N1CCCc2nc(C3(c4cccc(-c5ccc6ccccc6c5)c4)CC3)[nH]c(=O)c2C1` [42-47] are < 50 nM and < 10 nM.

Turning to `O=C([C@H](O)c1cccc(C(F)(F)F)c1)N1CCCc2nc(C3(c4cccc(-c5ccnc(C(F)(F)F)c5)c4)CC3)[nH]c(=O)c2C1` [42-48], the concentration for half-maximal inhibition (IC50) is < 50 nM under setting [1] and < 3 nM under setting [2]. The corresponding values for `O=C([C@H](O)c1cccc(C(F)(F)F)c1)N1CCCc2nc(C3(c4cccc(-c5cccc6ccccc56)c4)CC3)[nH]c(=O)c2C1` [42-49] are < 50 nM and < 10 nM.
